# Results reported in patent US12673039B2, “Methods of inducing autophagy using coumarin derivatives and related compounds” (Buck Institute for Research on Aging, priority 2019, dated 2026).
# Test system: C. elegans
# Test: Autophagic flux and lysosomal reporters in C. elegans
# Format: in vivo
# Description: FIGS. 12A-12B illustrate that coumarin 106 (“C1”, “AIC106”) promotes induction of autophagic markers. FIG. 12A) Increased APG:APL fusion as assessed by green to red fluorescence shift following addition of 20 μM C1 versus DMSO-only control to ttdLGG-1:GFP worms expressing a pH sensitive GFP. FIG. 12B) Increases in autophagic flux as assessed by increased GFP fluorescence within p62::GFP and plmp-1::GFP expressing worms following addition of 20 μM C1 versus DMSO-only controls.
# FIG. 19, panels A-G: AIC106 increases autophagic flux and lysosomal function in C. elegans. Panel A) Relative fold change in mRNA of autophagosome-specific protein p62/Sqstm-1 compared to DMSO-control was quantified using qRT-PCR in young adult wild-type N2 worms post-24 hours treatment with AIC106. [N=3 independent experiments (mean±SD). *p<0.05 and **p<0.01, by one-way ANOVA with Sidak's multiple comparisons test]. Panel B) Changes in p62/SQSTM-1 expression were measured by quantifying GFP intensity in an individual GFP-tagged p62/SQSTM-1 worm (HZ589) post-24 hours treatment with AIC106 and DMSO-control, followed by RNAi treatment. [N=3 independent experiments (mean±SD). ****p<0.0001, by one-way ANOVA with Tukey's multiple comparisons test]. Panel C) p62/SQSTM-1; GFP (HZ589) was monitored by fluorescence microscopy. Panel D) Changes in lysosomal number were measured by quantifying GFP intensity in an individual GFP-tagged LMP-1 worm (RT258) post-24 hours treatment with AIC106 and DMSO-control. [N=3 independent experiments (mean±SD). ****p<0.0001, by unpaired t-test]. Panel E) RT258 worms were monitored by fluorescence microscopy. Panel F) Changes in lysosomal number were measured by quantifying fluorescence intensity in an individual Lysotracker Red stained wild type N2 worms post-24 hours treatment with AIC106 and DMSO-control. [N=3 independent experiments (mean±SD). ****p<0.0001, by unpaired t-test]. Panel G) Lysotracker Red stained wild type N2 worms were monitored by fluorescence microscopy.
# FIG. 26, panels A-B: AIC106 enhances autophagy flux in C. elegans. Panel A) Monitoring of tandem reporter lgg-1p::mCherry::GFP::lgg-1 expressing worms was performed by fluorescence microscopy. Panel B) Effects of AIC106 treatment on GFP and mCherry by time were measured by fluorescence microscopy after AIC106 or DMSO-control treatment for 24 h. [N=3 independent experiments (mean±SD). *p<0.05 and **p<0.01, by unpaired t-test].
# Synchronized populations of day-1 adult worms expressing reporter GFP transgene or stained with a dye/stain (Lysotracker and TMRM) and grown at 20° C. were transferred to compound or DMSO plates. Fluorescence expression was analyzed at the time specified for each individual strain (see figure legends). Worms were paralyzed in 2 mM levamisole, mounted on 2% agarose pads with glass cover slips, and imaged immediately with an Axio Zeiss microscope. Appropriate filters were used to visualize GFP, Lysotracker red and TMRM were visualized under rhodamine filter. Approximately 20-40 worms per treatment were used. Fluorescence intensity normalized to worm area was measured using NIH ImageJ software. Transgenic reporters used in the study are HZ589 him-5(e1490) V; bpIs151[sqst-1p::sqst-1::GFP+unc-76(+)], RT258 unc-119(ed3) III; pwIs50 [lmp-1::GFP+Cbr-unc-119(+)], UA44 UA44(baIn11[Pdat-1::α-syn, Pdat-1::GFP]), AM141 rmIs133 [unc-54p::Q40::YFP]LAMP-1:GFP.
# Synchronized day-1 adult N2 worms were transferred to DMSO control or compound treated plates for 24 hours at 20° C. On day-2, worms were transferred to 35 mm OP50 seeded assay plates treated with compound or DMSO plates overlaid with 1 μM LysoTracker™ Red DND-99 (Molecular Probes) for 24 hours at 20° C. Post-24 hours on LysoTracker stain, worms were picked and washed in a fresh drop of 1×M9 medium to remove excess stain and mounted on 2% agarose pad slides for microscopic visualization. Worm images were taken in a Zeiss Imager Z1 fluorescence microscope using rhodamine filters. […]
structure (smiles),measurement,setting,value
"O=c1oc2c3c4c(cc2c2c1CCC2)CCCN4CCC3 [C1, 2,3,6,7,10,11-Hexahydro-1H,5H-cyclopenta(3,4)(1)benzopyrano(6,7,8-ij)quinolizin-12(9H)-one]",autophagic flux,20 μM C1 (FIG. 12),increased autophagic flux
same,tandem mCherry-GFP-LGG-1 reporter (autophagosomal:lysosomal fusion),24 h (FIG. 26),decreased GFP intensity in conjunction with significant increase in mCherry-only intensity
same,p62/SQSTM-1 protein levels (GFP),"HZ589 worms, 24 hours",enhanced p62/SQSTM-1 protein levels
same,lysosomal biogenesis by LysoTracker red staining,N2 worms,validated via LysoTracker red staining
same,p62/Sqstm-1 mRNA,"N2 worms, 24 hours",increased mRNA levels of p62/Sqstm-1
same,lysosomal biogenesis (GFP-tagged LAMP-1/LMP-1),"RT258 worms, 24 hours",increase in lysosomal biogenesis
